{
  "source": "patent US20220074923A1",
  "about": "“METHODS OF IDENTIFYING PARKIN-MEDIATED MITOPHAGY ACTIVATING AGENTS” (THE GOVERNING COUNCIL OF THE UNIVERSITY OF TORONTO, priority 2018, published 2022)",
  "key": {"Canton(S) flies": {"tested_on": "Canton(S) flies", "format": "in vivo, Drosophila", "description": "Fresh vials containing standard fly food supplemented with the indicated treatments were changed out every 2 days. The number of flies surviving each day was counted and log-rank tests were performed to determine statistical significance. […] The number of flies to climb beyond 9.5 cm every 10 seconds was assessed. The percentage of flies in each treatment to cross this line was determined. The climbing ability of each treatment was normalized to the control group treated with water only. […] Log-rank tests were performed to determine p-values for survival analyses (a, b, g), *P<0.05. P-values were determined by one-tailed paired student's t-test for all climbing assays (c-e, h), *P<0.05. Data is expressed as mean±s.e.m. All error bars represent s.e.m\nDrosophila aged 7 days are fed food supplemented with either water (control), 1 mM SR3677, 10 mM paraquat or SR3677 in combination with paraquat. The survival of flies was recorded each day following administration of the treatments and climbing abilities were tested every 2 days by performing negative geotaxis assays.\nMale Canton(S) Drosophila were aged 7 days prior to feeding with standard fly food supplemented with water, 10 mM paraquat, 1 mM SR3677, or with combinations of these chemicals. Flies were placed into new vials containing fresh food supplemented with the treatments previously administered and 2 days later, climbing assays were performed. Flies were placed into plastic cylinder vials and tapped down, so all flies fell to the bottom. The number of flies to climb beyond 12.5 cm was counted every 10 s and values are represented as the percentage of total flies in each treatment group."}, "HeLa cells": {"tested_on": "HeLa cells", "assay": "Mito-QC assay (targeting of mitochondria to lysosomes)", "format": "cell-based", "conditions": "0.5 μM 2 h pre-treatment, 10 μM CCCP 6 h with E-64 and leupeptin", "experimental": "HeLa cells were seeded into 6-well plates containing glass coverslips and allowed to adhere overnight. Cells were co-transfected with RGOMP25 and Cerulean-Parkin plasmids 24 hours prior to treatments. E-64 and leupeptin were added along with either DMSO or 10 μM CCCP for 6 hours prior followed by a PBS wash, fixation with 4% PFA and a final PBS wash prior to mounting onto glass slides with Fluoromount.\nCells were treated with 50 μM chloroquine for 16 hours prior to addition of E64, leupeptin, SR3677 and CCCP in the indicated treatment group. For the in vivo mitoQC assays, 5 7-day old male TH-GAL4>UAS-mitoQC were placed into vials containing water (control), sublethal 1 mM paraquat, 1 mM SR3677 alone and in combination with paraquat for 7 days. […] Fly brains were mounted in VectaShield™ mounting medium for imaging using the Zeiss LSM700 confocal fluorescence microscope with 40× 1.4 NA Oil Plan-APOCRAMAT objective and the appropriate lasers and filter. […]\nQuantification of the RG assay was done using Fiji software. […] A red/green fluorescence intensity ratio was determined for each pixel. Pixels were considered red-only if the red/green fluorescence ratio was greater than or equal to 1.5. The area of red-only pixels over the total non-background area was determined and averaged across 4 independent trials in which at least 20 cells were quantified per treatment."}, "[1]": {"tested_on": "heteroplasmic mt:Col^T300l flies", "assay": "Survival and climbing of heteroplasmic mt:CoI T300I flies", "format": "in vivo, Drosophila", "experimental": "Finally, SR3677 in an alternate, genetic model of mitochondrial dysfunction was tested. Specifically, flies with a temperature-sensitive, de-stabilizing mutation in cytochrome c oxidase subunit I (mt:Col^T300l) were used. This mutation causes depolarization of the mitochondrial membrane potential and increased mitochondrial reactive oxygen species^44, manifesting in systemic consequences such as impaired climbing and survival. Flies with this mutation in 100% of their mitochondrial genomes, or homoplasmic flies, only survive 4 days post-eclosion. In order to extend our therapeutic window, SR3677 in heteroplasmic flies which contain this temperature-sensitive mutation in approximately 90% of their mtDNA instead^47 was tested. These flies retain the same phenotypes as homoplasmic flies, including reduced survival and climbing ability although to a less severe extent (FIG. 7).\nImmediately following eclosion, male heteroplasmic mt:Col^T300l flies were transferred to vials containing either water, 1 or 2 mM SR3677. Newly eclosed Canton(S) male flies were placed into fresh vials and referenced as a control for these experiments and flies were raised at non-permissive 29° C. for these experiments. […]"}, "HEK293 GFP Parkin cells": {"tested_on": "HEK293 GFP Parkin cells", "assay": "Immunoblotting of mitochondrial protein degradation after CCCP", "format": "cell-based", "experimental": "(a) HEK293 GFP Parkin cells were treated with varying doses of SR3677 for 2 hours prior to induction of mitophagy with 10 μM CCCP for one hour. The percentage of cells with mitochondrial Parkin increased in a dose-dependent manner. […] Cell lysates were harvested, proteins were separated by SDS-PAGE and immunoblotting was performed with anti-Mfn2 and anti-actin antibodies. (c) Ponceau VDAC1 levels in each sample normalized to Ponceau staining. (d) Mfn2/actin levels in CCCP treated cells. (e) Densitometry analysis was performed to quantify Mfn2 and VDAC1 levels in each sample (n=4 independent experiments).\nHEK293 GFP Parkin cells co-treated with 0.5 μM SR3677 or DMSO and 10 μM CCCP for the indicated time (hours). Cell lysates were separated by SDS-PAGE and immunoblotting was performed to assess turnover of IMM/matrix substrates (A) ATP5A, (B) UQCRC2 and (C) COXIV. Densitometry analysis was performed. Protein levels were normalized to Ponceau. Data is expressed as mean±s.e.m (n=6, 7 and 8 for a, b and c, respectively. 4) P-values were determined by paired student's t-test, *P<0.05.\nLysates were harvested using lysis buffer (0.1M Tris HCl, 0.01% SDS, pH 9) with 1× protease inhibitor cocktail (BioShop, PIC002.1). Lysates were then heated at 95° C. for 20 minutes with vortexing performed at 5-minute intervals. The BCA assay (Pierce, 23227) was performed to determine protein concentration, to standardize protein loading across samples to be compared. 12% SDS-PAGE gels were used to run samples to be analyzed for LC3 conversation and for Tom20 and 10% gels were run for all other samples. Transfer of proteins onto PVDF membrane (Immobilon, IPVH00010) was performed at 110V for 80 minutes or at 36V for 8 hours. Membranes were blocked with 5% skim milk in TBST (1×TBS, 0.1% Tween-20 [BioShop, 1M23298]) for 30 minutes prior to incubation in primary antibodies at a dilution of 1:1000 for all antibodies except anti-ROCK2 and anti-LC3, which were used at a dilution of 1:5000. Visualization of proteins was performed using ECL (BioRad, 11705062).\nDensitometry was performed by normalizing bands corresponding to the protein of interest to a loading control such as actin using ImageLab 6.0 software (BioRad)."}, "[2]": {"conditions": "in vivo; cited from earlier work"}, "[3]": {"conditions": "0.5 μM co-treated with 10 μM CCCP"}},
  "data": [
    {"molecule": "CN(C)CCOc1cc(-c2cn[nH]c2)ccc1NC(=O)[C@@H]1COc2ccccc2O1", "note": "[SR3677]", "values": [
      {"measurement": "survival of flies, compound alone", "setting": "Canton(S) flies; 1 mM SR3677 in food", "value": "does not affect survival of flies"},
      {"measurement": "survival of flies challenged with paraquat", "setting": "Canton(S) flies; 1 mM SR3677 with 10 mM paraquat in food", "value": "significantly improved viability of flies"},
      {"measurement": "mitochondrial targeting to lysosomes (red-only mitochondrial area)", "setting": "HeLa cells", "value": "increased the extent of mitochondrial targeting to lysosomes"},
      {"measurement": "survival", "setting": "[1]; 1 mM and 2 mM in fly food, 29° C.", "value": "equally improved"},
      {"measurement": "climbing ability", "setting": "[1]; 2 mM in fly food, 7 days", "value": "improved"},
      {"measurement": "degradation of ATP5A", "setting": "HEK293 GFP Parkin cells; [3]", "value": "increased the degradation"},
      {"measurement": "degradation of COXIV", "setting": "HEK293 GFP Parkin cells; [3]", "value": "increased the degradation"},
      {"measurement": "degradation of UQCRC2", "setting": "HEK293 GFP Parkin cells; [3]", "value": "enhanced"},
      {"measurement": "fold lower concentration than Y39983 for comparable Mfn2 degradation", "setting": "HEK293 GFP Parkin cells; 0.5 μM vs 10 μM", "value": 20, "unit": "fold"},
      {"measurement": "turnover of VDAC1", "setting": "HEK293 GFP Parkin cells; 0.5 μM, 10 μM CCCP", "value": "increased the turnover"},
      {"measurement": "concentration administered to enhance Mfn2 degradation", "setting": "HEK293 GFP Parkin cells; 10 μM CCCP", "value": 0.5, "unit": "µM"},
      {"measurement": "Mfn2 degradation following CCCP", "setting": "HEK293 GFP Parkin cells; 2 h pre-treatment, 10 μM CCCP, Y39983 10 μM, SR3677 0.5 μM", "value": "Increased degradation of Mfn2"},
      {"measurement": "bioavailability", "setting": "[2]", "value": "poor bioavailability"}
    ]}
  ]
}
